{"source": "ChEMBL document CHEMBL6087462", "about": "“Cuminaldehyde Potentiates Antiproteolytic Peptide Efficacy via Parallel Pathways of Enhanced Inner Membrane-Damaging Activity and Inhibition of Bacterial Energy Metabolism” (J Med Chem, 2025)", "key": {"[1]": {"tested_on": "RAW264.7", "assay": "Cytotoxicity against mouse RAW264.7 cells assessed as cell death incubated for 4 hrs by MTT assay", "assay_type": "toxicity, cell-based", "conditions": "raw264.7, 4 h"}, "[2]": {"tested_on": "HEK-293T", "assay": "Cytotoxicity against human HEK293T cells assessed as cell death incubated for 4 hrs by MTT assay", "assay_type": "toxicity, cell-based"}, "[3]": {"assay": "Cytotoxicity against porcine IPEC-J2 cells assessed as cell death incubated for 4 hrs by MTT assay", "assay_type": "toxicity, cell-based, Sus scrofa", "conditions": "pig, ipec-j2, 4 h"}, "[4]": {"assay": "Acute toxicity in C57BL/6 mouse assessed as lethal dose measured for 5 days", "conditions": "in vivo, time 5 day"}, "[5]": {"assay": "Acute toxicity in C57BL/6 mouse assessed as animal survival at 80 mg/kg, po measured for 5 days", "assay_type": "organism-based", "conditions": "in vivo, 120 h, time 5 day"}, "[6]": {"assay": "Acute toxicity in C57BL/6 mouse assessed as animal survival at 40 mg/kg, po measured for 5 days", "assay_type": "organism-based", "conditions": "in vivo, 120 h, time 5 day"}, "[7]": {"assay": "Acute toxicity in C57BL/6 mouse assessed as ruffled fur at 80 mg/kg, po measured for 5 days", "assay_type": "organism-based", "conditions": "in vivo, 120 h, time 5 day"}, "[8]": {"assay": "Subacute toxicity in C57BL/6 mouse assessed as reduction in body weight loss at 125 mg/kg, po administered for 3 days", "assay_type": "organism-based", "conditions": "in vivo, 72 h, time 3 day"}, "[9]": {"assay": "Subacute toxicity in C57BL/6 mouse assessed as change in liver weight at 125 mg/kg, po administered for 3 days", "assay_type": "organism-based", "conditions": "in vivo, 72 h, time 3 day"}, "[10]": {"assay": "Subacute toxicity in C57BL/6 mouse assessed as change in kidney weight at 125 mg/kg, po administered for 3 days", "assay_type": "organism-based", "conditions": "in vivo, 72 h, time 3 day"}, "[11]": {"assay": "Subacute toxicity in C57BL/6 mouse assessed as change in spleen weight at 125 mg/kg, po administered for 3 days", "assay_type": "organism-based", "conditions": "in vivo, 72 h, time 3 day"}, "[12]": {"assay": "Subacute toxicity in C57BL/6 mouse assessed as change in BUN level at 125 mg/kg, po administered for 3 days", "assay_type": "organism-based", "conditions": "in vivo, 72 h, time 3 day"}, "[13]": {"assay": "Subacute toxicity in C57BL/6 mouse assessed as change in CREA level at 125 mg/kg, po administered for 3 days", "assay_type": "organism-based", "conditions": "in vivo, 72 h, time 3 day"}, "[14]": {"assay": "Subacute toxicity in C57BL/6 mouse assessed as change in ALT level at 125 mg/kg, po administered for 3 days", "assay_type": "organism-based", "conditions": "in vivo, 72 h, time 3 day"}}}
{"smiles": "CC[C@H](C)[C@H](NC(=O)[C@@H](NC(=O)[C@@H](CCCNC(=N)N)NC(=O)[C@H](C)NC(=O)[C@H](C)NC(=O)[C@@H](N)Cc1cccc2ccccc12)[C@@H](C)CC)C(=O)N[C@@H](CC(C)C)C(=O)N[C@H](CCCNC(=N)N)C(=O)N[C@@H](Cc1c[nH]c2ccccc12)C(=O)N[C@H](CCCNC(=N)N)C(=O)N[C@@H](Cc1ccccc1)C(=O)N[C@@H](CCCNC(=N)N)C(=O)O", "values": [{"measurement": "Activity", "setting": "[1]", "result": "< 50", "unit": "%"}, {"measurement": "Activity", "setting": "[2]", "result": "< 50", "unit": "%"}, {"measurement": "Activity", "setting": "[3]", "result": "< 50", "unit": "%"}, {"measurement": "LD50 at 120 h", "setting": "[4]", "result": 1010, "unit": "mg/kg"}, {"measurement": "Activity", "setting": "[5]", "result": "Non-toxic"}, {"measurement": "Activity", "setting": "[6]", "result": "Non-toxic"}, {"measurement": "Activity", "setting": "[7]", "result": "Non-toxic"}, {"measurement": "Activity", "setting": "[8]", "result": "Non-toxic"}, {"measurement": "Activity", "setting": "[9]", "result": "Non-toxic"}, {"measurement": "Activity", "setting": "[10]", "result": "Non-toxic"}, {"measurement": "Activity", "setting": "[11]", "result": "Non-toxic"}, {"measurement": "Activity", "setting": "[12]", "result": "Non-toxic"}, {"measurement": "Activity", "setting": "[13]", "result": "Non-toxic"}, {"measurement": "Activity", "setting": "[14]", "result": "Non-toxic"}]}
